Laboratory results taken from patent publication US20030144335A1, “Preventive or remedial agent for allergic disease and medical water-based liquid preparation, eye drop, and nasal drop” (priority 2001, published 2003).

Tested on: experimental allergic conjunctivitis model
Test: Experimental allergic conjunctivitis model (dye leakage in palpebral conjunctiva of passively sensitized guinea pigs)
Type: in vivo, guinea pig
Conditions: at each concentration (0.01%, 0.1%, 1%); dose relationship confirmed
Description: In the test, Hartley male guinea pigs (each group consisting of 8 guinea pigs) at age 6 weeks were used.
Antiserum made by the following method was used: According to the method of Levine et al (J.Immunol.,106,29-33(1971)), the guinea pigs were sensitized with 4 times-administration of physiological saline 1 ml containing 10 μg of ovalbumin (hereafter called “OA”) and 5 mg of aluminum hydroxide via the peritoneal cavity at intervals of 2 weeks. 1 week after the final sensitization, blood was sampled from the hind leg, and left at room temperature for 30 minutes. The blood was then left at 4° C. for 4-5 hours, and serum was then collected by centrifugation at 1680×9.8 m/s^2 g for 15 minutes. The serum obtained was frozen and stored at −80° C.
20 μl/site of Anti OA guinea pig serum (64 antibody titer in PCA (passive cutaneous anaphylaxis reaction)) was diluted with an equal amount of physiological saline. 20 μl/site of the solution was injected intradermally in binocular palpebral conjunctiva of the guinea pig under ether anesthesia. Thus, passive sensitization was carried out. […]
Then, 8 ml of 0.6 mol/ml of liquid mixture of phosphoric acid and acetone(5 to 13) was added and shaken; thereafter, the mixture was stirred using a homogenizer, and centrifuged at 1680×9.8/s^2 for 15 minutes. The leakage pigment quantity was colorimetered at 620 nm using a spectrophotometer. […]

## CCS(=O)(=O)CCn1c([N+](=O)[O-])cnc1C [tinidazole, 1-(2-ethylsulfonyl)ethyl-2-methyl-5-nitro-1H-imidazole]
  inhibitory effect on dye leakage (allergic conjunctivitis): significant inhibitory effect
